Test results reported in ChEMBL document CHEMBL4842313, “Combating multi-drug resistant malaria parasite by inhibiting falcipain-2 and heme-polymerization: Artemisinin-peptidyl vinyl phosphonate hybrid molecules as new antimalarials” (Eur J Med Chem, 2021).
pEC50, pIC50: −log10 of the molar value. Activity calls are given as the source filed them. No cut-off for these calls is given here.

How the values were obtained:
[1] = molecular target: T1, Falcipain 2 (Plasmodium falciparum, UniProt Q9N6S8); assay: Inhibition of recombinant Plasmodium falciparum falcipain-2 expressed in Escherichia coli M15 assessed as reduction in free AMC release using Z-FR-AMC as a substrate measured over 30 mins by Cheng-prusoff equation analysis
T1 sequence (Q9N6S8 whole entry): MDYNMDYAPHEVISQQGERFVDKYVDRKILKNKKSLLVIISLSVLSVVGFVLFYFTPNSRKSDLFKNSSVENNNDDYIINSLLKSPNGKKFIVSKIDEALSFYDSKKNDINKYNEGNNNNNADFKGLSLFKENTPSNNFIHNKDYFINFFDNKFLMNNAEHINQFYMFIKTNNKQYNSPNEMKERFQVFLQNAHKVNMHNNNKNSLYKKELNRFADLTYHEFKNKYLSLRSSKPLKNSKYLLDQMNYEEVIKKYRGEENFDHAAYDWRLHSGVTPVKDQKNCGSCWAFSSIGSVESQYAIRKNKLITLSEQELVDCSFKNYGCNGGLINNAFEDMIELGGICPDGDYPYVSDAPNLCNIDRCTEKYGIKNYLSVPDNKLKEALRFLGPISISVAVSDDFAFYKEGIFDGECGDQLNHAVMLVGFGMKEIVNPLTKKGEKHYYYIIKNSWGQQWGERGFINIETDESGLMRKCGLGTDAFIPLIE

[2] = molecular target: T1, Falcipain 2; assay: Inhibition of recombinant Plasmodium falciparum falcipain-2 expressed in Escherichia coli M15 assessed as reduction in free AMC release using Z-FR-AMC as a substrate measured over 30 mins by fluorometric assay
[3] = tested on: A549; assay: Cytotoxicity against human A549 cells assessed as reduction in cell viability measured after 24 hrs by WST-1 assay; format: cell-based; conditions: A549, 24 h
[4] = tested on: Plasmodium falciparum; assay: Antimalarial activity against Plasmodium falciparum 3D7 assessed as parasite growth inhibition incubated for 48 hrs by SYBR green DNA fluorescent dye-binding assay; format: functional, organism-based; conditions: 3D7, 48 h
[5] = Drug degradation in human plasma; format: ADME, cell-free
[6] = tested on: Plasmodium berghei; assay: Antimalarial activity against blood stage of Plasmodium berghei infected in BALB/c mouse assessed as mouse survival time at 12.5 mg/kg, ip administered once daily for 4 consecutive days (reference value: 12 to 15 days); format: functional; conditions: time 4 day
[7] = tested on: Cytochrome P450; assay: Inhibition of CYP450 (unknown origin); format: ADME, protein assay; conditions: human
[8] = tested on: Plasmodium berghei; assay: Antimalarial activity against blood stage of Plasmodium berghei infected in BALB/c mouse assessed as suppression of parasite growth at 12.5 mg/kg, ip administered once daily for 4 consecutive days measured on day 5 by Giemsa staining based assay; format: functional, organism-based; conditions: time 5.0 day
[9] = tested on: Plasmodium berghei; assay: Antimalarial activity against blood stage of Plasmodium berghei infected in BALB/c mouse assessed as suppression of parasite growth at 12.5 mg/kg, ip administered once daily for 4 consecutive days measured on day 6 by Giemsa staining based assay; format: functional, organism-based; conditions: time 6.0 day
[10] = tested on: Plasmodium falciparum; assay: Antimalarial activity against chloroquine and pyrimethamine-resistant Plasmodium falciparum 7G8 assessed as parasite growth inhibition incubated for 48 hrs by SYBR green DNA fluorescent dye-binding assay; format: functional, organism-based; conditions: 7G8, 48 h
[11] = tested on: Plasmodium falciparum; assay: Antimalarial activity against asexual blood stage of Plasmodium falciparum assessed as inhibition of mature schizonts development at EC50 observed at 48 hrs post invasion; format: functional, organism-based
[12] = tested on: Plasmodium falciparum; assay: Antimalarial activity against asexual blood stage of Plasmodium falciparum assessed as darkly stained dead parasites at EC50 observed at 60 hrs post invasion; format: functional, organism-based
[13] = tested on: Plasmodium falciparum; assay: Antimalarial activity against asexual blood stage of Plasmodium falciparum assessed as abnormalities in food vacuole observed upto 60 hrs post invasion; format: functional, organism-based; conditions: time hrs <=60
[14] = molecular target: T2, Heme ligase (Plasmodium falciparum (isolate 3D7)) (UniProt Q8IL04); assay: Inhibition of recombinant Plasmodium falciparum heme detoxification protein expressed in Escherichia coli M15 assessed as reduction in hemozoin formation using heme as substrate measured after 3 hrs relative to control; conditions: concentration not given here
T2 sequence (whole entry): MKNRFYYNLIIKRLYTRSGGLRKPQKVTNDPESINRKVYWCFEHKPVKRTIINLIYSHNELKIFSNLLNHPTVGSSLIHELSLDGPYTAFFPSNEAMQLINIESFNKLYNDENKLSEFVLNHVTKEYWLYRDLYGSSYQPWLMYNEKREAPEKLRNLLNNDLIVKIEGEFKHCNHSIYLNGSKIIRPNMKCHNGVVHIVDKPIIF

[15] = tested on: Plasmodium falciparum; assay: Antimalarial activity against laboratory adapted artemisinin-resistant Plasmodium falciparum RT4974 assessed as inhibition of the survival of ring-stage parasite measured after 66 hrs by ring survival assay; format: functional, organism-based
[16] = tested on: Plasmodium berghei; assay: Antimalarial activity against blood stage of Plasmodium berghei infected in BALB/c mouse assessed as parasite clearance at 12.5 mg/kg, ip administered once daily for 4 consecutive days measured on day 10 by Giemsa staining based assay (reference value: 0%); format: functional; conditions: time 10 day
[17] = tested on: Plasmodium falciparum; assay: Antimalarial activity against chloroquine, pyrimethamine and mefloquine-resistant Plasmodium falciparum Dd2 assessed as parasite growth inhibition incubated for 48 hrs by SYBR green DNA fluorescent dye-binding assay; format: functional, organism-based; conditions: Dd2, 48 h

Row | SMILES | Ki [1] | pIC50 [2] | pEC50 [4] | also measured
1 | COC(=O)[C@H](Cc1ccccc1)NC(=O)[C@@H]1C[C@@H](O[C@H]2O[C@@H]3O[C@@]4(C)CC[C@H]5[C@H](C)CC[C@@H]([C@H]2C)[C@@]35OO4)CN1C(=O)OCc1ccccc1 | Not Active | < 4.00 | – | –
2 | CCOP(=O)(/C=C/C(N)c1ccccc1)OCC (stereo not drawn) | Not Active | < 4.60 | < 4.00 | pEC50 [3]: < 4.52
3 | C[C@H]1[C@@H](O)O[C@@H]2O[C@@]3(C)CC[C@H]4[C@H](C)CC[C@@H]1[C@@]24OO3 [ARTENIMOL] | Not Active | < 4.00 | 8.30 | pEC50 [3]: < 4.60
4 | CCOP(=O)(/C=C/[C@H](NC(=O)[C@H](Cc1ccccc1)NC(=O)[C@H](CO[C@H]1O[C@@H]2O[C@@]3(C)CC[C@H]4[C@H](C)CC[C@@H]([C@H]1C)[C@@]24OO3)NC(=O)OCc1ccccc1)c1ccccc1)OCC | – | – | 8.69 | –
5 | CCOP(=O)(/C=C/C(NC(=O)[C@H](CC(C)C)NC(=O)[C@H](CO[C@H]1O[C@@H]2O[C@@]3(C)CC[C@H]4[C@H](C)CC[C@@H]([C@H]1C)[C@@]24OO3)NC(=O)OCc1ccccc1)c1ccccc1)OCC (stereo partly drawn) | – | – | 8.48 | pEC50 [3]: 5.42; Stabilty [5]: Unstable; Survival [6]: >60 days; inhibition (INH) [7]: Active; Activity [8]: inactive; Activity [9]: Active; pEC50 [10]: 9.64; Activity [11]: Active; Activity [12]: Active; Activity [13]: Active; inhibition [14]: 60%; Activity [15]: Active; Activity [16]: 100%; pEC50 [17]: 8.46
6 | COC(=O)[C@H](CC(C)C)NC(=O)[C@H](CO[C@H]1O[C@@H]2O[C@@]3(C)CC[C@H]4[C@H](C)CC[C@@H]([C@H]1C)[C@@]24OO3)NC(=O)OCc1ccccc1 | Not Active | < 4.00 | – | –
7 | CCOP(=O)(/C=C/[C@@H](NC(=O)[C@H](CC(C)C)NC(=O)[C@H](CO[C@H]1O[C@@H]2O[C@@]3(C)CC[C@H]4[C@H](C)CC[C@@H]([C@H]1C)[C@@]24OO3)NC(=O)OCc1ccccc1)c1ccccc1)OCC | – | – | 7.96 | –
8 | COC(=O)[C@H](Cc1ccccc1)NC(=O)[C@H](CO[C@H]1O[C@@H]2O[C@@]3(C)CC[C@H]4[C@H](C)CC[C@@H]([C@H]1C)[C@@]24OO3)NC(=O)OCc1ccccc1 | Not Active | < 4.00 | – | –
9 | CCOP(=O)(/C=C/[C@H](NC(=O)[C@H](CC(C)C)NC(=O)[C@H](CO[C@H]1O[C@@H]2O[C@@]3(C)CC[C@H]4[C@H](C)CC[C@@H]([C@H]1C)[C@@]24OO3)NC(=O)OCc1ccccc1)c1ccccc1)OCC | – | – | 7.78 | –
10 | CCOP(=O)(/C=C/C(NC(=O)[C@H](Cc1ccccc1)NC(=O)[C@H](CO[C@H]1O[C@@H]2O[C@@]3(C)CC[C@H]4[C@H](C)CC[C@@H]([C@H]1C)[C@@]24OO3)NC(=O)OCc1ccccc1)c1ccccc1)OCC (stereo partly drawn) | – | – | 8.57 | pEC50 [3]: 4.84; Stabilty [5]: Unstable; Survival [6]: >60 days; inhibition (INH) [7]: Active; Activity [8]: inactive; Activity [9]: Active; pEC50 [10]: 9.33; Activity [11]: Active; Activity [12]: Active; Activity [13]: Active; inhibition [14]: 80%; Activity [15]: Active; Activity [16]: 80%; pEC50 [17]: 8.72
11 | CCOP(=O)(/C=C/[C@@H](NC(=O)[C@H](CC(C)C)NC(=O)[C@@H]1C[C@@H](O[C@H]2O[C@@H]3O[C@@]4(C)CC[C@H]5[C@H](C)CC[C@@H]([C@H]2C)[C@@]35OO4)CN1C(=O)OCc1ccccc1)c1ccccc1)OCC | – | – | 8.98 | –
12 | COC(=O)[C@H](CO[C@H]1O[C@@H]2O[C@@]3(C)CC[C@H]4[C@H](C)CC[C@@H]([C@H]1C)[C@@]24OO3)NC(=O)OCc1ccccc1 | Not Active | < 4.00 | – | –
13 | COC(=O)[C@H](CC(C)C)NC(=O)[C@@H]1C[C@@H](O[C@H]2O[C@@H]3O[C@@]4(C)CC[C@H]5[C@H](C)CC[C@@H]([C@H]2C)[C@@]35OO4)CN1C(=O)OCc1ccccc1 | Not Active | < 4.00 | – | –
14 | COC(=O)[C@@H]1C[C@@H](O[C@H]2O[C@@H]3O[C@@]4(C)CC[C@H]5[C@H](C)CC[C@@H]([C@H]2C)[C@@]35OO4)CN1C(=O)OCc1ccccc1 | Not Active | < 4.00 | – | –
15 | C[C@@H]1CC[C@H]2[C@@H](C)C(=O)O[C@@H]3O[C@@]4(C)CC[C@@H]1[C@]32OO4 [ARTEMISININ] | – | – | 7.57 | Survival [6]: 15 days; pEC50 [10]: 7.74; Activity [16]: 0%; pEC50 [17]: 7.82
16 | CCOP(=O)(/C=C/C(NC(=O)[C@@H]1C[C@@H](O[C@H]2O[C@@H]3O[C@@]4(C)CC[C@H]5[C@H](C)CC[C@@H]([C@H]2C)[C@@]35OO4)CN1C(=O)OCc1ccccc1)c1ccccc1)OCC (stereo partly drawn) | Not Active | < 4.00 | – | –
17 | CCOP(=O)(/C=C/C(NC(=O)[C@H](Cc1ccccc1)NC(=O)[C@@H]1C[C@@H](O[C@H]2O[C@@H]3O[C@@]4(C)CC[C@H]5[C@H](C)CC[C@@H]([C@H]2C)[C@@]35OO4)CN1C(=O)OCc1ccccc1)c1ccccc1)OCC (stereo partly drawn) | Not Active | < 4.00 | – | –
18 | CCOP(=O)(/C=C/[C@H](NC(=O)[C@H](CC(C)C)NC(=O)[C@@H]1C[C@@H](O[C@H]2O[C@@H]3O[C@@]4(C)CC[C@H]5[C@H](C)CC[C@@H]([C@H]2C)[C@@]35OO4)CN1C(=O)OCc1ccccc1)c1ccccc1)OCC | Not Active | – | 8.21 | –
19 | CCOP(=O)(/C=C/C(NC(=O)[C@H](CO[C@H]1O[C@@H]2O[C@@]3(C)CC[C@H]4[C@H](C)CC[C@@H]([C@H]1C)[C@@]24OO3)NC(=O)OCc1ccccc1)c1ccccc1)OCC (stereo partly drawn) | Not Active | < 4.00 | – | –
20 | CCOP(=O)(/C=C/[C@@H](NC(=O)[C@H](Cc1ccccc1)NC(=O)[C@H](CO[C@H]1O[C@@H]2O[C@@]3(C)CC[C@H]4[C@H](C)CC[C@@H]([C@H]1C)[C@@]24OO3)NC(=O)OCc1ccccc1)c1ccccc1)OCC | – | – | 9.02 | –
